ChEMBL document CHEMBL4513161, “CO-ADD screening of MMV (CH) - Pandemic Response Box” (2021)
≈ marks a conversion by molar mass, not a printed value.

Assays:
Pseudomonas aeruginosa [1] = experiment: Antibacterial activity against Pseudomonas aeruginosa PAO397 [PAO1 d(mexAB-oprM) d(mexCD-oprJ) d(mexEF-oprN) d(mexJKL) d(mexXY) d(opmH)] (CO-ADD:GN_211); MIC in CAMBH media using NBS plates, by OD(600); type: functional; conditions: ASSAY_TEST Inhibition of Bacterial Growth, detection method Absorption (OD600), MEDIA CAMHB, plate type 384well, CORNING #3640, time 18 hr
Staphylococcus aureus = experiment: microbe, parasite or virus in culture; conditions: ATCC 43300, 18 h, ASSAY_TEST Inhibition of Bacterial Growth, detection method Absorption (OD600), MEDIA CAMHB, plate type 384well, NBS, CORNING #3640
Description: Antibacterial activity against Staphylococcus aureus MRSA ATCC 43300 (CO-ADD:GP_020); MIC in CAMBH media, using NBS plates, by OD(600)

Escherichia coli = experiment: microbe, parasite or virus in culture; conditions: ATCC 25922, 18 h, ASSAY_TEST Inhibition of Bacterial Growth, detection method Absorption (OD600), MEDIA CAMHB, plate type 384well, NBS, CORNING #3640
Description: Antibacterial activity against Escherichia coli ATCC 25922 (CO-ADD:GN_001); MIC in CAMBH media using NBS plates, by OD(600)

Klebsiella pneumoniae = experiment: microbe, parasite or virus in culture; conditions: ATCC 700603, 18 h, ASSAY_TEST Inhibition of Bacterial Growth, detection method Absorption (OD600), MEDIA CAMHB, plate type 384well, NBS, CORNING #3640
Description: Antibacterial activity against Klebsiella pneumoniae MDR ATCC 70063 (CO-ADD:GN_003); MIC in CAMBH media using NBS plates, by OD(600)

Pseudomonas aeruginosa [2] = experiment: microbe, parasite or virus in culture; conditions: ATCC 27853, 18 h, ASSAY_TEST Inhibition of Bacterial Growth, detection method Absorption (OD600), MEDIA CAMHB, plate type 384well, NBS, CORNING #3640
Description: Antibacterial activity against Pseudomonas aeruginosa ATCC 27853 (CO-ADD:GN_042); MIC in CAMBH media using NBS plates, by OD(600)

Candida albicans = experiment: microbe, parasite or virus in culture; conditions: ATCC 90028, ASSAY_TEST Inhibition of Fungal Growth, detection method Absorption (OD530), plate type 384well, NBS, CORNING #3640
Description: Antifungal activity against Candida albicans ATCC 90028 (CO-ADD:FG_001); MIC in YNB media using NBS plates, by OD630

Acinetobacter baumannii = experiment: microbe, parasite or virus in culture; conditions: ATCC 19606, 18 h, ASSAY_TEST Inhibition of Bacterial Growth, detection method Absorption (OD600), MEDIA CAMHB, plate type 384well, NBS, CORNING #3640
Description: Antibacterial activity against Acinetobacter baumannii ATCC 19606 (CO-ADD:GN_034); MIC in CAMBH media using NBS plates, by OD600

HEK293 = experiment: cells; type: functional, Homo sapiens, ATCC CRL1573; conditions: Homo sapiens, ATCC CRL1573, HEK293; ASSAY_TEST Inhibition of Cell Viability; detection method Resazurin; Fluorescence (ex560/em590); MEDIA DMEM with 10% FBS; plate type 384well; TC; CORNING #3712; time 18 hr; read-out: CC50

Description for Cryptococcus neoformans: Antifungal activity against Cryptococcus neoformans H99 ATCC 208821 (CO-ADD:FG_002); MIC in YNB media using NBS plates, by Resazurin OD(600-570)

MIC (Pseudomonas aeruginosa [1]) [µM]	MIC (Staphylococcus aureus) [µM]	MIC (Escherichia coli) [µM]	MIC (Klebsiella pneumoniae) [µM]	MIC (Pseudomonas aeruginosa [2]) [µM]	MIC (Candida albicans) [µM]	MIC (Cryptococcus neoformans) [µM]	MIC (Acinetobacter baumannii) [µM]	Structure (SMILES)	CC50 (HEK293) [µM]
> 20	> 20	> 20	> 20	> 20	> 20	> 20	> 20	CC(C)Cn1c(=O)n(C)c(=O)c2c(-c3cncn3C)n(Cc3cccc4ccccc34)nc21	> 20
> 20	> 20	> 20	> 20	> 20	> 20	> 20	> 20	COc1ccc(-n2cnc3cc(NCc4ccco4)ccc32)cc1	> 20
> 20	20 (≈ 5.07 µg/mL)	> 20	> 20	> 20	> 20	> 20	> 20	O=C1c2cccc3cccc(c23)C(=O)N1CC1CO1 (stereo unspecified)	4.49
> 20	> 20	> 20	> 20	> 20	> 20	> 20	> 20	CC(C)(C)c1ccc(C(=O)NC(=O)N2CCCc3ccccc32)cc1	> 20
> 20	> 20	> 20	> 20	> 20	> 20	> 20	> 20	Fc1ccc(-c2nc(-c3c[nH]c4ccc(Br)cc34)[nH]c2-c2ccc(F)cc2)cc1	9.15
> 20	> 20	> 20	> 20	> 20	> 20	> 20	> 20	C[C@H](Cn1cnc2c(N)ncnc21)OCP(=O)(O)O [TENOFOVIR ANHYDROUS]	> 20
> 20	> 20	> 20	> 20	> 20	> 20	> 20	> 20	O=C(N[C@H](CCS)C(=O)N[C@H](Cc1ccccc1)C(=O)O)c1cc2ccccc2[nH]1	> 20
> 20	> 20	> 20	> 20	> 20	> 20	> 20	> 20	O=c1cc(Nc2ccc3ccccc3c2)[nH]c(=O)[nH]1	> 20
> 20	10 (≈ 4.22 µg/mL)	> 20	> 20	> 20	0.625 (≈ 0.264 µg/mL)	≤ 0.156	> 20	Nc1nc(Nc2ccc3nc(-c4ccc(F)cc4)cc(N)c3c2)cc(-c2ccccc2)n1	0.751
> 20	> 20	> 20	> 20	> 20	≤ 0.156	0.312 (≈ 0.137 µg/mL)	> 20	C[C@@H](c1nc(-c2ccc(C#N)cc2)cs1)[C@](O)(Cn1cncn1)c1ccc(F)cc1F [RAVUCONAZOLE]	> 20
5 (≈ 1.45 µg/mL)	5 (≈ 1.45 µg/mL)	2.5 (≈ 0.726 µg/mL)	10 (≈ 2.9 µg/mL)	20 (≈ 5.81 µg/mL)	> 20	> 20	> 20	COc1cc(Cc2cc(N)nc(N)n2)cc(OC)c1OC	> 20
> 20	1.25 (≈ 0.545 µg/mL)	> 20	> 20	> 20	> 20	> 20	> 20	Cc1onc(-c2ccccc2Cl)c1C(=O)N[C@@H]1C(=O)N2[C@@H]1SC(C)(C)[C@@H]2C(=O)O [CLOXACILLIN]	> 20
5 (≈ 4.68 µg/mL)	≤ 0.156	1.25 (≈ 1.17 µg/mL)	2.5 (≈ 2.34 µg/mL)	10 (≈ 9.37 µg/mL)	> 20	0.312 (≈ 0.293 µg/mL)	5 (≈ 4.68 µg/mL)	N=C(N)NCCCCC(=O)Nc1cc(C(F)(F)F)cc(NC(=O)c2cc(C(=O)Nc3cc(C(F)(F)F)cc(NC(=O)CCCCNC(=N)N)c3O[C@@H]3CCNC3)ncn2)c1O[C@@H]1CCNC1	> 20
> 20	> 20	> 20	> 20	> 20	> 20	> 20	> 20	O=S(=O)(Nc1cccc2cccnc12)c1ccccc1	2.25
> 20	> 20	> 20	> 20	> 20	0.312 (≈ 0.111 µg/mL)	0.625 (≈ 0.221 µg/mL)	> 20	N#C/C(=C1/SC[C@H](c2ccc(Cl)cc2Cl)S1)n1ccnc1	> 20
> 20	> 20	> 20	> 20	> 20	> 20	> 20	> 20	CCc1ccc(C2CC(C(F)(F)F)n3ncc(C(=O)NCc4ccc(OC)cc4)c3N2)cc1 (stereo unspecified)	> 20
> 20	> 20	> 20	> 20	> 20	> 20	> 20	> 20	N#Cc1cc([N+](=O)[O-])ccc1Oc1ccccc1Cl	> 20
20 (≈ 14.7 µg/mL)	> 20	> 20	> 20	20 (≈ 14.7 µg/mL)	> 20	> 20	> 20	CC[C@H]1OC(=O)[C@H](C)[C@@H](O[C@H]2C[C@@](C)(OC)[C@@H](O)[C@H](C)O2)[C@H](C)[C@@H](O[C@@H]2O[C@H](C)C[C@H](N(C)C)[C@H]2O)[C@](C)(O)C[C@@H](C)C(=O)[C@H](C)[C@@H](O)[C@]1(C)O [ERYTHROMYCIN]	> 20
> 20	> 20	> 20	> 20	> 20	> 20	> 20	> 20	Cc1ncc([N+](=O)[O-])n1CC(C)O (stereo unspecified) [SECNIDAZOLE]	> 20
> 20	> 20	> 20	> 20	> 20	> 20	> 20	> 20	O=C(Cn1cnc2ccccc2c1=O)Nc1ccccc1	> 20
> 20	> 20	> 20	> 20	> 20	> 20	> 20	> 20	CCC(CC)[C@H](NC(C)=O)[C@@H]1[C@H](O)[C@@H](C(=O)O)C[C@H]1NC(=N)N	> 20
> 20	> 20	> 20	> 20	> 20	> 20	> 20	> 20	C[C@@H](NC(=O)c1ccccc1-c1ccccc1)B(O)O	> 20
> 20	> 20	> 20	> 20	> 20	> 20	> 20	> 20	O=C(O)c1sccc1S(=O)(=O)n1ccc2cc(Br)ccc21	> 20

Structure (SMILES)	MIC (Pseudomonas aeruginosa [1]) [µM]	MIC (Staphylococcus aureus) [µM]	MIC (Escherichia coli) [µM]	MIC (Klebsiella pneumoniae) [µM]	MIC (Pseudomonas aeruginosa [2]) [µM]	MIC (Candida albicans) [µM]	MIC (Cryptococcus neoformans) [µM]	MIC (Acinetobacter baumannii) [µM]	CC50 (HEK293) [µM]
Nc1nc(F)nc2c1ncn2[C@H]1O[C@@H](CO)[C@H](O)[C@@H]1O	> 20	> 20	> 20	> 20	> 20	> 20	> 20	> 20	0.535
